Data on 1 compound can be found in patent US9861616B2, “Methods for treating respiratory diseases and formulations therefor” (priority 2013, dated 2018).

≈ marks a conversion by molar mass, not a printed value. Where only a bound is given, the exact number is not on record here.

In assay [1] the test system is P. aeruginosa PAO1. As to the kind of experiment: MIC by microdilution with PaβN or EGTA, wild-type strain. The class given is cell-based. The protocol:
(§1) MICs of 36 clinical and laboratory strains of PA with known efflux phenotype are measured by microdilution in cation-adjusted Muller-Hinton broth (CA-MHB) or in RPMI medium (commonly used in eukaryotic cell culture). Phe-Arg-β-naphthylamide (PaβN, 50 mg/L) and EGTA 5 mM are used to inhibit efflux pumps and alter OM integrity, respectively. P. aeruginosa strain ATCC PAO1 is used as reference. PA12 is a clinical strain overexpressing the 4 main efflux systems (MexAB, MexCD, MexEF, MexXY), PA403 is a laboratory strain deleted in the genes coding for the 4 efflux systems. A series of reference strains or of clinical isolates for which the expression of genes coding for efflux pumps is known is also used for MICs determinations. MICs are measured by microdilution in MH broth or in RPMI medium (used for eukaryotic cells culture) supplemented with 10% of fetal calf serum, or in MH broth supplemented by increasing amounts of serum. EGTA (5 mM) was used as a chelating agent (disrupting outer membrane integrity) and PaβN (50 mg/L) as an unspecific efflux inhibitor.
(Dilution methods test growth across graded concentrations, often in twofold steps.)

Assay [2] deals with IL-8 (CXCL8) release. As to the kind of experiment: LPS-induced IL-8 (CXCL8) release in PMA-differentiated U937 cells (ELISA). In kind it is cell-based, human. The protocol:
Effects of macrolides on lipopolysaccharide (LPS)-induced CXCL8 release in PMA-differentiated U937 cells. […] LPS-induced CXCL8 release was evaluated by ELISA. Values represent means of three experiments±SEM. ^##p<0.01 (vs. non-treatment control), *p<0.05, **p<0.01 (vs. treatment with LPS only).
The human monocytic cell line U937 was obtained from the American Type Culture Collection (ATCC, Rockville, Md.). PBMCs from COPD patients were obtained from Brompton hospital and separated by AccuSPIN (Sigma-Aldrich). Cells were cultured in complete growth medium (RPMI 1640) (Sigma-Aldrich) supplemented with 10% fetal bovine serum (FBS) and 1% L-glutamine at 37° C. in a humidified atmosphere with 5% CO2. U937 cells were differentiated into adherent macrophage-like morphology by exposure to PMA (50 ng/mL) for 48 hrs in complete growth medium. Cell viability was assessed microscopically by trypan blue staining. Cell toxicity was determined by MTT assay as needed. This study was approved by the ethics committee of the Royal Brompton Hospitals, and all subjects gave written informed consent.
TNFα and IL-8 concentrations in the supernatant of cell cultures were determined by sandwich ELISA according to the manufacturer's instructions (R&D Systems Europe, Abingdon, UK).
The results were expressed as the mean±SEM. Comparisons of data in two groups were performed using the Student's t test or the Wilcoxon signed rank test. Multiple comparisons were made by one-way ANOVA with post hoc test (Dunnett's) as appropriate. The difference was considered significant at p<0.05. IC50 values (50% inhibitory concentration) for macrolides for production of cytokines or MMP9 were calculated using Prism 4.0 (GraphPad Software Inc., San Diego, Calif.).
In general terms: In an ELISA, binding on a coated surface is turned into a signal by an enzyme label.

In assay [3] the test system is MRSA strains from CF patients. Put plainly: Microdilution MICs against 40 MRSA strains from CF patients. The class given is cell-based, S. aureus. The protocol:
Two strains each of mucoid P. aeruginosa (both pyocyanin positive) and […] MRSA (only one strain with gold colonies) isolated from patients at a CF clinic were tested. Additionally, 2 B. cepacia strains were acquired, from Hershey Medical Center. All strains were identified by standard methods. Only one strain per patient was tested. MLVA was done on all strains to examine clonality, and confirmed that examination is not taking place on only one or a few clones. Strains will be stored in skim milk at −70° C. until use.
Original MICs of each strain to CEM-101 and other comparators were tested by CLSI microdilution methodology. Trays were obtained from Trek, Inc., Cleveland, Ohio. Time-kill macrobroth MIC dilution by CLSI was performed for all synergy testing.

For assay [4], the system named is P. aeruginosa PA403. As to the kind of experiment: MIC by microdilution with PaβN or EGTA, efflux-deleted laboratory strain. The class given is cell-based. On the procedure: as §1, with “The compounds described herein are poor substrates of efflux pumps expressed in P. aeruginosa (PA). MICs of” for “MICs of”
In assay [5] the test system is P. aeruginosa PA12. Put plainly: MIC by microdilution with PaβN or EGTA, clinical isolate overexpressing efflux pumps. In kind it is cell-based. The protocol:
as §1

[6] abbreviates: 40 MRSA strains from CF patients.

One may read the MIC as the lowest concentration found to suppress growth. A lower MIC goes with a more susceptible organism. What is called IC50 is the concentration needed to halve the response being measured. As usually defined, the MIC50 is the lowest concentration that inhibits either 50% of growth or 50% of the strains tested, depending on the study.

Take `CC[C@H]1OC(=O)[C@@](C)(F)C(=O)[C@H](C)[C@@H](O[C@@H]2O[C@H](C)C[C@H](N(C)C)[C@H]2O)[C@](C)(OC)C[C@@H](C)C(=O)[C@H](C)[C@H]2N(CCCCn3cc(-c4cccc(N)c4)nn3)C(=O)O[C@]12C` [CEM-101, solithromycin]: the MIC in assay [1] (PAO1, CA-MHB, EGTA 5 mM) is reported as 8 mg/L (≈ 9.47 µM); in assay [1] (PAO1, CA-MHB, PaβN 50 mg/L), 8 mg/L (≈ 9.47 µM); in assay [1] (PAO1, CA-MHB, control conditions (CT)), 32 mg/L (≈ 37.9 µM); in assay [1] (PAO1, RPMI, EGTA 5 mM) it was 1 mg/L (≈ 1.18 µM); in assay [1] (PAO1, RPMI, PaβN 50 mg/L) it was 2 mg/L (≈ 2.37 µM); in assay [1] (PAO1, RPMI, control conditions (CT)), 2 mg/L (≈ 2.37 µM). For the same compound, the MIC in assay [4] (P403, CA-MHB, EGTA 5 mM) came to 1 mg/L (≈ 1.18 µM); in assay [4] (P403, CA-MHB, control conditions (CT)), 4 mg/L (≈ 4.73 µM); in assay [4] (P403, RPMI, EGTA 5 mM), 0.25 mg/L (≈ 0.296 µM); in assay [4] (P403, RPMI, PaβN 50 mg/L), 2 mg/L (≈ 2.37 µM); in assay [4] (P403, RPMI, control conditions (CT)), 1 mg/L (≈ 1.18 µM); in assay [5] (PA12, CA-MHB, EGTA 5 mM), 16 mg/L (≈ 18.9 µM). The MIC is 4 mg/L (≈ 4.73 µM) in assay [5] (PA12, CA-MHB, PaβN 50 mg/L); 32 mg/L (≈ 37.9 µM) in assay [5] (PA12, CA-MHB, control conditions (CT)); 1 mg/L (≈ 1.18 µM) in assay [5] (PA12, RPMI, EGTA 5 mM); 4 mg/L (≈ 4.73 µM) in assay [5] (PA12, RPMI, PaβN 50 mg/L); 4 mg/L (≈ 4.73 µM) in assay [5] (PA12, RPMI, control conditions (CT)). The IC50 in assay [2] (PMA-differentiated U937 cells, read-out: IC50, LPS-induced IL-8 (CXCL8) release) amounted to 78.2 ± 9.5 µM. Further, in assay [2] (at 100 μM), the “effect on CXCL8 production” value was “significantly inhibited”. Also, in assay [3] (21 of the 40 MRSA strains), the “MICs against the strains it was active against” value lay in the range of 0.06 to 0.25 µg/mL. In assay [3] (21 of the 40 MRSA strains, MICs 0.06-0.25), the “share of strains against which active” value is on record as 52.5%. Besides, the MIC50 in assay [3] (setting [6]) turned out to be 0.25 µg/mL. Further, in assay [3] (setting [6]), the MIC90 result is reported as “≧16 μg/mL”. In addition, in assay [3] (remaining 19 of 40 MRSA strains), the “MICs against the remaining organisms” value was at least 16 µg/mL.
